# Results from paper PMC10135964, “One Scaffold, Two Conformations: The Ring-Flip of the Messenger InsP8 Occurs under Cytosolic Conditions” (Biomolecules, 2023).
# Where two headings read alike, the source gives them in different places.
# Tests used:
# [1] = design: method as in PMID 27460418, PMID 15708805, doi:10.1016/j.molstruc.2007.03.035; settings: Potentiometry (37 °C); equation as printed refers to InsP8 complexes; cited from earlier work
# [2] = 1H,13C BIRD-HMQC NMR quantification of axial vs. equatorial conformer; type: physicochemical; settings: 50 µM, 130 mM KCl, 10 mM NaCl, 4 °C
# Protocol: Samples for HMQC-NMR studies contained 50 µM ^13C6-labeled InsPs (InsP6/5PP-InsP5/InsP8), 2 mM bis-tris-propane, 130 mM KCl, 10 mM NaCl and 0/50/250 µM MgCl2 in D2O.
# BIRD-HMQC NMR spectra were recorded at 277 K and 600 MHz (^1H frequency) on a Bruker AV-III NMR spectrometer (Bruker Biospin, Rheinstetten, Germany) using cryogenically cooled 5 mm QCI-triple resonance probe equipped with one-axis self-shielded gradients. The spectrometer was operated using topspin 3.5 pl6 software. Instrument temperature was calibrated against […] according to Findeisen et al.. Acquisition parameters were SW(^13C): 60–90 ppm, NS: 128, TD(^13C): 64.
# BIRD-HMQC spectra were recorded at 277 K as described above, with samples containing 200 µM InsPs, 130 mM KCl, 10 mM NaCl, 2mM BTP in D2O. pH was set to pH* 9.5 for InsP6, pH* 8.8 for 5PP-InsP5 and pH* 8.5 for InsP8 (pH = 0.929 × pH* + 0.42 [35]). NOESY-HMQC spectra of the same samples were subsequently recorded using mixing times of 80 ms for InsP6 and 5PP-InsP5 and 200 ms for InsP8. Conformational exchange on the time-scale of the experiment created cross-peaks between corresponding peaks in different conformations, which allowed us to assign each peak of the equatorial conformer to its axial counterpart.
# [3] = as above; type: physicochemical; settings: pH* 8.5, 5 equiv. Ca2+, 130 mM KCl, 10 mM NaCl
# [4] = design: method as in PMID 27460418, PMID 15708805, doi:10.1016/j.molstruc.2007.03.035; settings: 31P NMR (22 °C); equation as printed refers to InsP8 complexes; cited from earlier work
# [5] = design: method as in doi:10.1351/pac199163071015; settings: 150 mM NaCl, 37 °C; cited from earlier work
# [6] = pH* 9.5, without divalent cations
structure (smiles),measurement,setting,value
O=P(O)(O)O[C@H]1[C@H](OP(=O)(O)O)[C@@H](OP(=O)(O)O)[C@H](OP(=O)(O)O)[C@@H](OP(=O)(O)O)[C@H]1OP(=O)(O)O [InsP6],"log K, 3 K^+ + H4L^10− ↔ [K3(H4L)]^7−",[1],3.36(5)
same,"log K, 4 K^+ + H3L^11− ↔ [K4(H3L)]^7−",[1],5.42(5)
same,"log K, L^14− + 2 H^+ ↔ H2L^12−",[1],21.3(1)
same,"log K, L^14− + 3 H^+ ↔ H3L^11−",[1],31.63(6)
same,"log K, L^14− + 4 H^+ ↔ H4L^10−",[1],40.42(6)
same,"log K, L^14− + 5 H^+ ↔ H5L^9−",[1],47.32(6)
same,"log K, L^14− + 6 H^+ ↔ H6L^8−",[1],53.04(7)
same,"log K, L^14− + 7 H^+ ↔ H7L^7−",[1],56.14(9)
same,"log K, L^14− + H^+ ↔ HL^13−",[1],10.8(1)
same,proportion in axial conformation,"[2]; pH* 9.0, 1 equiv. Mg2+",about 30%
same,proportion in axial conformation,"[2]; pH* 9.0, without divalent cations",traces
same,proportion in axial conformation,"[2]; pH* 9.5, 1 equiv. Mg2+",~90%
same,proportion in axial conformation,[2]; [6],less than half
O=P(O)(O)O[C@H]1[C@@H](OP(=O)(O)O)[C@H](OP(=O)(O)O)[C@@H](OP(=O)(O)OP(=O)(O)O)[C@H](OP(=O)(O)O)[C@H]1OP(=O)(O)O [5PP-InsP5],proportion in axial conformation,[3],About 60%
same,proportion in axial conformation,"[2]; pH* 8.5 (=pH 8.3) and higher, 5 equiv. Mg2+",exclusively the axial conformation
same,proportion in axial conformation,"[2]; pH* 8.5, without divalent cations",about 10%
same,proportion in axial conformation,[2]; [6],only detected in the axial conformation
O=P(O)(O)CP(=O)(O)O[C@H]1[C@H](OP(=O)(O)O)[C@@H](OP(=O)(O)O)[C@@H](OP(=O)(O)O)[C@@H](OP(=O)(O)O)[C@@H]1OP(=O)(O)O [5PCP-InsP5],"log K, 2 K^+ + H5L^9− ↔ [K2(H5L)]^7−",[4],2.79(7)
same,"log K, 3 K^+ + H4L^10− ↔ [K3(H4L)]^7−",[4],3.94(4)
same,"log K, 4 K^+ + H2L^12− ↔ [K4(H2L)]^8−",[4],4.61(3)
same,"log K, 4 K^+ + H3L^11− ↔ [K4(H3L)]^7−",[4],4.50(5)
same,"log K, 5 K^+ + HL^13− ↔ [K5(HL)]^8−",[4],6.57(3)
same,"log K, L^14− + 2 H^+ ↔ H2L^12−",[4],22.42(2)
same,"log K, L^14− + 3 H^+ ↔ H3L^11−",[4],32.26(2)
same,"log K, L^14− + 4 H^+ ↔ H4L^10−",[4],40.94(2)
same,"log K, L^14− + 5 H^+ ↔ H5L^9−",[4],47.67(2)
same,"log K, L^14− + 6 H^+ ↔ H6L^8−",[4],51.93(2)
same,"log K, L^14− + 7 H^+ ↔ H7L^7−",[4],55.64(2)
same,"log K, L^14− + H^+ ↔ HL^13−",[4],11.48(1)
same,"log K, Mg^2+ + H2L^12− + 3 K^+ ↔ [MgK3(H2L)]^7−",[4],9.75(7)
same,"log K, Mg^2+ + H4L^10− + 2 K^+ ↔ [MgK2(H4L)]^6−",[4],6.96(7)
same,"log K, Mg^2+ + H5L^9− + K^+ ↔ [MgK(H5L)]^6−",[4],5.26(7)
same,"log K, Mg^2+ + H6L^8− ↔ [Mg(H6L)]^6−",[4],4.71(7)
same,"log K, Mg^2+ + HL^13− + 4 K^+ ↔ [MgK4(HL)]^7−",[4],11.64(5)
Nc1ncnc2c1ncn2[C@@H]1O[C@H](COP(=O)(O)OP(=O)(O)OP(=O)(O)O)[C@@H](O)[C@H]1O [ATP],"log(K), Mg^2+ + ATP^4− → [MgATP]^2−",[5],4.34
same,"log(K), Mg^2+ + HATP^3− → [Mg(HATP)]^−",[5],2.39
